The values below come from patent US20070141129A1, “Wound care product comprising a substance which inhibits the growth of bacteria in wounds” (priority 2003, published 2007).

The structures appear in SMILES notation. “Also recorded” adds a separate entry of the source.

For data set [1], the system named is S. aureus. Briefly: growth of S. aureus in BHI broth with added xylitol (transmittance). It is filed as cell-based, Staphylococcus aureus. The protocol: (§1) The bacterial strains were stored at −70° C. Immediately prior to each experiment, these strains were taken out and placed on a blood plate and incubated overnight at 35° C. The same incubator was used in all the experiments. After that, a loop of the colonies which had grown was incubated in brain heart infusion (BHI) broth for 18 hours. 100 μl of this broth were inoculated into 3-5 ml of fresh BHI broth with or without the addition of xylitol. Different contents of xylitol were added. As is evident from FIGS. 1-5, the contents of xylitol were 1%, 2.5%, 5% and 10%.
(§2) The transmittance or translucency was measured from hour 0, and after that every hour, for 6 hours on a Biolog turbidimeter from the company Biolog Inc., Hayward, Calif., USA. The growth of bacteria reduces the translucency, i.e. the lower the transmittance the greater the growth of the bacteria.
(§3) At 0 hours and at 6 hours, 100 μl of the broth were cultured and the number of live bacteria was counted. The transmittance value and the quantity of bacteria (colony forming units/ml) in tubes with and without xylitol were then compared.

Data set [2] relates to S. aureus (multiresistant), MRSA strain. Briefly: growth of multiresistant S. aureus (MRSA strain) in BHI broth with added xylitol (transmittance). Type of data set: cell-based, Staphylococcus aureus. The protocol: as §1, §2, §3
The subject of a further data set is group B streptococci. Briefly: growth of group B streptococci in BHI broth with added xylitol. The settings on record: xylitol added to BHI, 1-10% (FIG. 3). Type of data set: cell-based. On the procedure:
as §1, §2, §3

A further data set relates to group G streptococci. Briefly: growth of group G streptococci in BHI broth with added xylitol. Type of data set: cell-based. The settings on record: xylitol added to BHI, 1-10% (FIG. 4). The protocol:
as §1, §2, §3

For the next data set, the system named is P. aeruginosa. Put plainly: growth of P. aeruginosa in BHI broth with added xylitol. Type of data set: cell-based, Pseudomonas aeruginosa. The settings on record: xylitol added to BHI, 1-10% (FIG. 5). The protocol:
as §1, §2, §3

Data set [3] concerns S. aureus (including MRSA), group A, B, C and G streptococci, enterococci (including VRE) and Pseudomonas aeruginosa. Briefly: growth of wound infection bacteria in nutrient-rich medium with added xylitol. Type of data set: cell-based. Particulars: xylitol (1-10%) in nutrient-rich medium. The protocol: as §1, §2, §3
The test system of the next data set is VRE. Briefly: growth of VRE with xylitol. Type of data set: cell-based, vancocin-resistant enterococci. On the procedure:
as §1, §2, §3

Data set [4] relates to beta-haemolytic streptococci, including group B streptococci. Put plainly: growth of beta-haemolytic streptococci with xylitol. It is filed as cell-based. On the procedure:
as §1, §2, §3

The next data set deals with bacteria. The settings on record: bacteriological tests; cited from earlier work.
For data set [5] the following is noted: toxicity assessed as so low; cited from earlier work.
The subject of another data set is alpha-streptococci. The settings on record: oral flora; uptake via fructose phosphotransferase system; cited from earlier work.
The subject of data set [6] is S. aureus. The settings on record: cited from earlier work.
Data set [7] has as its system intestinal bacteria which cause diarrhoea, bacteria which give rise to ear inflammations, yeast fungus. The settings on record: cited from earlier work.
For data set [8] the following is noted: children, clinical study; cited from earlier work.
Data set [9] concerns epithelial cells in the skin. The settings on record: cited from earlier work.

In the case of `OC[C@@H](O)[C@H](O)[C@@H](O)CO` [xylitol], the “bacterial growth after 2 hours” value in the data set on S. aureus [1] (BHI containing 10% added xylitol, 2 hours (FIG. 1)) was “hardly any bacterial growth at all”. Besides, the “translucency (transmittance) after 6 hours” value with S. aureus [1] (BHI nutrient solution, 10% xylitol added, 6 hours, without xylitol 20 (FIG. 1)) is recorded as “more than 60%”. Besides, the “translucency after 6 hours” value in data set [2] (10% added xylitol, 6 hours, without xylitol approx. 30% (FIG. 2)) is listed as “more than 70%”. The “inhibition of growth of the bacteria” value in data set [2] (xylitol added to nutrient solution, 1-10%) is “effective in combating the growth; also recorded: inhibited very effectively”; in the data set with group B streptococci, “effectively inhibited”; in the data set on group G streptococci, “very effective in inhibiting the growth”; with P. aeruginosa, “effective in combating the growth; also recorded: very effective in inhibiting the growth”; with VRE, “effective in combating the growth”. Also, the “reduction of growth, factor” value in [3] was not above 1000. Also, the “effect against the bacteria” value in data set [4] is given as “also effective”. The “mutagenic properties (increase in natural mutation frequency)” value with bacteria was “No mutagenic properties”. Besides, the “limit value for an acceptable daily intake” value in [5] is on record as “no limit value”. Besides, the growth of alpha-streptococci result with alpha-streptococci is given as “inhibited”. Also, the production of glycocalyx entry with S. aureus [6] is on record as “decrease”. The adherence of bacteria entry in data set [7] is reported as “decreases the adherence”. Moreover, the “reduction of the number of ear inflammations” value in [8] is “up to 40%”. In data set [9], the “absorption by epithelial cells in the skin” value was “only absorbed to a very slight extent”.
